In a compilation of properties of binary mixtures (doi:10.1016/j.molliq.2014.08.031):

Test: xn = mol fraction of the nth substance listed
Details: 101 kPa

## CCCC[n+]1ccn(C)c1.CS(=O)(=O)[O-] + O
298.15 K, x1 = 0.004
  electrical conductivity: 1.17 S/m
298.15 K, x1 = 0.008
  electrical conductivity: 2.08 S/m
298.15 K, x1 = 0.019
  electrical conductivity: 3.25 S/m
298.15 K, x2 = 0.5596
  viscosity: 50 mPa·s
298.15 K, x2 = 0.785
  electrical conductivity: 1.15 S/m
298.15 K, x2 = 0.8016
  viscosity: 13.45 mPa·s
298.15 K, x2 = 0.8521
  viscosity: 8.87 mPa·s
298.15 K, x2 = 0.861
  electrical conductivity: 2.33 S/m
298.15 K, x2 = 0.892
  electrical conductivity: 2.95 S/m
298.15 K, x2 = 0.9004
  viscosity: 5.45 mPa·s
298.15 K, x2 = 0.9254
  viscosity: 4.05 mPa·s
298.15 K, x2 = 0.929
  electrical conductivity: 3.58 S/m
298.15 K, x2 = 0.9503
  viscosity: 2.73 mPa·s
298.15 K, x2 = 0.968
  electrical conductivity: 3.96 S/m
299.15 K, x1 = 0.004
  electrical conductivity: 1.2 S/m
299.15 K, x1 = 0.019
  electrical conductivity: 3.33 S/m
299.15 K, x2 = 0.704
  electrical conductivity: 0.601 S/m
299.15 K, x2 = 0.785
  electrical conductivity: 1.18 S/m
299.15 K, x2 = 0.796
  electrical conductivity: 1.29 S/m
299.15 K, x2 = 0.861
  electrical conductivity: 2.39 S/m
299.15 K, x2 = 0.929
  electrical conductivity: 3.67 S/m
299.15 K, x2 = 0.968
  electrical conductivity: 4.04 S/m
300.15 K, x1 = 0.008
  electrical conductivity: 2.17 S/m
300.15 K, x1 = 0.019
  electrical conductivity: 3.4 S/m
300.15 K, x2 = 0.704
  electrical conductivity: 0.634 S/m
300.15 K, x2 = 0.785
  electrical conductivity: 1.23 S/m
300.15 K, x2 = 0.796
  electrical conductivity: 1.3 S/m
300.15 K, x2 = 0.861
  electrical conductivity: 2.5 S/m
300.15 K, x2 = 0.892
  electrical conductivity: 3.02 S/m
300.15 K, x2 = 0.929
  electrical conductivity: 3.75 S/m
300.15 K, x2 = 0.951
  electrical conductivity: 4.23 S/m
300.15 K, x2 = 0.968
  electrical conductivity: 4.13 S/m
301.15 K, x1 = 0.004
  electrical conductivity: 1.27 S/m
301.15 K, x1 = 0.008
  electrical conductivity: 2.23 S/m
301.15 K, x1 = 0.019
  electrical conductivity: 3.5 S/m
301.15 K, x2 = 0.704
  electrical conductivity: 0.661 S/m
301.15 K, x2 = 0.785
  electrical conductivity: 1.28 S/m
301.15 K, x2 = 0.796
  electrical conductivity: 1.36 S/m
301.15 K, x2 = 0.892
  electrical conductivity: 3.11 S/m
301.15 K, x2 = 0.929
  electrical conductivity: 3.87 S/m
301.15 K, x2 = 0.951
  electrical conductivity: 4.33 S/m
301.15 K, x2 = 0.968
  electrical conductivity: 4.05 S/m
302.15 K, x1 = 0.004
  electrical conductivity: 1.29 S/m
302.15 K, x1 = 0.008
  electrical conductivity: 2.26 S/m
302.15 K, x2 = 0.704
  electrical conductivity: 0.663 S/m
302.15 K, x2 = 0.796
  electrical conductivity: 1.41 S/m
302.15 K, x2 = 0.892
  electrical conductivity: 3.2 S/m
302.15 K, x2 = 0.929
  electrical conductivity: 3.97 S/m
302.15 K, x2 = 0.951
  electrical conductivity: 4.43 S/m
302.15 K, x2 = 0.968
  electrical conductivity: 4.28 S/m
303.15 K, x1 = 0.004
  electrical conductivity: 1.31 S/m
303.15 K, x1 = 0.008
  electrical conductivity: 2.31 S/m
303.15 K, x1 = 0.019
  electrical conductivity: 3.66 S/m
303.15 K, x2 = 0.785
  electrical conductivity: 1.39 S/m
303.15 K, x2 = 0.796
  electrical conductivity: 1.47 S/m
303.15 K, x2 = 0.892
  electrical conductivity: 3.3 S/m
303.15 K, x2 = 0.929
  electrical conductivity: 4.16 S/m
303.15 K, x2 = 0.951
  electrical conductivity: 4.54 S/m
303.15 K, x2 = 0.968
  electrical conductivity: 4.41 S/m
304.15 K, x1 = 0.004
  electrical conductivity: 1.34 S/m
304.15 K, x1 = 0.008
  electrical conductivity: 2.37 S/m
304.15 K, x1 = 0.019
  electrical conductivity: 3.73 S/m
304.15 K, x2 = 0.704
  electrical conductivity: 0.753 S/m
304.15 K, x2 = 0.785
  electrical conductivity: 1.44 S/m
304.15 K, x2 = 0.861
  electrical conductivity: 2.79 S/m
304.15 K, x2 = 0.892
  electrical conductivity: 3.4 S/m
304.15 K, x2 = 0.929
  electrical conductivity: 4.22 S/m
304.15 K, x2 = 0.951
  electrical conductivity: 4.61 S/m
304.15 K, x2 = 0.968
  electrical conductivity: 4.55 S/m
305.15 K, x1 = 0.008
  electrical conductivity: 2.4 S/m
305.15 K, x1 = 0.019
  electrical conductivity: 3.77 S/m
305.15 K, x2 = 0.785
  electrical conductivity: 1.46 S/m
305.15 K, x2 = 0.796
  electrical conductivity: 1.56 S/m
305.15 K, x2 = 0.892
  electrical conductivity: 3.51 S/m
305.15 K, x2 = 0.929
  electrical conductivity: 4.35 S/m
305.15 K, x2 = 0.951
  electrical conductivity: 4.74 S/m
305.15 K, x2 = 0.968
  electrical conductivity: 4.51 S/m
306.15 K, x1 = 0.008
  electrical conductivity: 2.45 S/m
306.15 K, x1 = 0.019
  electrical conductivity: 3.85 S/m
306.15 K, x2 = 0.704
  electrical conductivity: 0.815 S/m
306.15 K, x2 = 0.785
  electrical conductivity: 1.49 S/m
306.15 K, x2 = 0.796
  electrical conductivity: 1.62 S/m
306.15 K, x2 = 0.892
  electrical conductivity: 3.6 S/m
306.15 K, x2 = 0.929
  electrical conductivity: 4.49 S/m
306.15 K, x2 = 0.951
  electrical conductivity: 5.02 S/m
306.15 K, x2 = 0.968
  electrical conductivity: 4.73 S/m
307.15 K, x1 = 0.004
  electrical conductivity: 1.42 S/m
307.15 K, x1 = 0.019
  electrical conductivity: 4.02 S/m
307.15 K, x2 = 0.704
  electrical conductivity: 0.851 S/m
307.15 K, x2 = 0.796
  electrical conductivity: 1.64 S/m
307.15 K, x2 = 0.861
  electrical conductivity: 3.04 S/m
307.15 K, x2 = 0.892
  electrical conductivity: 3.74 S/m
307.15 K, x2 = 0.929
  electrical conductivity: 4.59 S/m
307.15 K, x2 = 0.951
  electrical conductivity: 4.98 S/m
307.15 K, x2 = 0.968
  electrical conductivity: 4.78 S/m
308.15 K, x1 = 0.004
  electrical conductivity: 1.44 S/m
308.15 K, x1 = 0.008
  electrical conductivity: 2.62 S/m
308.15 K, x2 = 0.704
  electrical conductivity: 0.882 S/m
308.15 K, x2 = 0.785
  electrical conductivity: 1.64 S/m
308.15 K, x2 = 0.796
  electrical conductivity: 1.69 S/m
308.15 K, x2 = 0.892
  electrical conductivity: 3.83 S/m
308.15 K, x2 = 0.929
  electrical conductivity: 4.72 S/m
308.15 K, x2 = 0.951
  electrical conductivity: 5.05 S/m
309.15 K, x1 = 0.004
  electrical conductivity: 1.47 S/m
309.15 K, x1 = 0.008
  electrical conductivity: 2.62 S/m
309.15 K, x1 = 0.019
  electrical conductivity: 4.14 S/m
309.15 K, x2 = 0.704
  electrical conductivity: 0.921 S/m
309.15 K, x2 = 0.861
  electrical conductivity: 3.17 S/m
309.15 K, x2 = 0.892
  electrical conductivity: 3.93 S/m
309.15 K, x2 = 0.929
  electrical conductivity: 4.79 S/m
309.15 K, x2 = 0.951
  electrical conductivity: 5.22 S/m
310.15 K, x1 = 0.004
  electrical conductivity: 1.5 S/m
310.15 K, x1 = 0.008
  electrical conductivity: 2.66 S/m
310.15 K, x2 = 0.704
  electrical conductivity: 0.956 S/m
310.15 K, x2 = 0.785
  electrical conductivity: 1.74 S/m
310.15 K, x2 = 0.796
  electrical conductivity: 1.8 S/m
310.15 K, x2 = 0.929
  electrical conductivity: 4.93 S/m
310.15 K, x2 = 0.951
  electrical conductivity: 5.35 S/m
311.15 K, x1 = 0.004
  electrical conductivity: 1.54 S/m
311.15 K, x1 = 0.008
  electrical conductivity: 2.73 S/m
311.15 K, x1 = 0.019
  electrical conductivity: 4.21 S/m
311.15 K, x2 = 0.704
  electrical conductivity: 0.987 S/m
311.15 K, x2 = 0.785
  electrical conductivity: 1.79 S/m
311.15 K, x2 = 0.796
  electrical conductivity: 1.86 S/m
311.15 K, x2 = 0.892
  electrical conductivity: 4.16 S/m
311.15 K, x2 = 0.929
  electrical conductivity: 5.04 S/m
311.15 K, x2 = 0.951
  electrical conductivity: 5.47 S/m
311.15 K, x2 = 0.968
  electrical conductivity: 5.2 S/m
312.15 K, x1 = 0.004
  electrical conductivity: 1.57 S/m
312.15 K, x1 = 0.008
  electrical conductivity: 2.75 S/m
312.15 K, x1 = 0.019
  electrical conductivity: 4.39 S/m
312.15 K, x2 = 0.704
  electrical conductivity: 1.06 S/m
312.15 K, x2 = 0.785
  electrical conductivity: 1.86 S/m
312.15 K, x2 = 0.861
  electrical conductivity: 3.44 S/m
312.15 K, x2 = 0.892
  electrical conductivity: 4.28 S/m
312.15 K, x2 = 0.929
  electrical conductivity: 5.15 S/m
312.15 K, x2 = 0.951
  electrical conductivity: 5.65 S/m
312.15 K, x2 = 0.968
  electrical conductivity: 5.28 S/m
313.15 K, x1 = 0.004
  electrical conductivity: 1.58 S/m
313.15 K, x1 = 0.008
  electrical conductivity: 2.8 S/m
313.15 K, x1 = 0.019
  electrical conductivity: 4.46 S/m
